Consider one substance from patent US10993919B2, “Chondroprotective nanoparticles for the treatment of osteoarthritis” (University of Florida Research Foundation, Inc., priority 2016, dated 2021).

In the assay the test system is fat pad-derived MSCs. Kind of assay: MSC migration in Boyden chamber plates. Type of assay: cell-based. The conditions noted are these: MSCs isolated from the fat pad of the joint; preliminary. As for the experimental part:
To determine if there are inherent differences in the migratory activity of the different MSC populations, migration in response to serum is first evaluated using 96-well Boyden chamber plates. To simulate OA conditions, MSC migration is evaluated in response to IL-1β (10 ng/mL and 50 ng/mL), conditioned medium from the established OA cartilage explants, and conditioned medium from normal explants. Results from each group are compared with a positive control of media with 10% serum to determine if the experimental conditions increase or decrease migration of MSCs.
The response of MSCs to chondroinductive agents is evaluated, specifically platelet-derived growth factor (PDGF-BB) and kartogenin (KGN), which were selected based on their pleiotropic effects on promoting both migration and chondrogenesis of MSCs without adverse effects in the OA joint. PDGF-BB exerts chemotactic effects on bone marrow-derived MSCs, and facilitates new cartilage formation in the presence of IL-1β (Montaseri, A., et al. PloS one 6:e28663 (2011)). […] Kartogenin has been implicated in stimulating MSC recruitment in vivo, however, there are no reported migration studies with KGN, and therefore, the underlying mechanism for KGN-mediated recruitment is largely unknown. […]

Regarding “IL-1β: predominant pro-inflammatory cytokine in OA”, the MSC migration entry is reported as “may indeed inhibit migration”.
